According to patent publication US12391701B2, “Chromene-based compounds, methods and uses thereof” (University of Minho, priority 2019, dated 2025):

Tests used:
[1] = tested on: CAM (chicken chorioallantoic membrane) blood vessels; experiment: CAM assay, angiogenesis; type: in vivo; settings: 2× the IC50 value; after 4 days of treatment
Procedure: In an embodiment, the in vivo capacity of the compounds to inhibit angiogenesis was analysed using the CAM model. To assess the effect on angiogenesis, sterilized 5-mm diameter filter disks were impregnated in culture medium with fixed concentration (2× the IC50 value) of the chromenes MC408 and MC421 or 0.5% DMSO (control group) and were placed onto the vascular area of CAM.
In an embodiment, CAM assay was performed. Fertilized chicken eggs were incubated at 37° C. and at day 3 of development, a window was opened into the eggshell after puncturing the air chamber. The window was sealed with BTK tape and returned to the incubator. On day 9 of development, Hs578t cells (2×10^6 cells) or 786-O cells (3.5×10^6 cells) with Matrigel (10 μL) were placed on CAM, allowing tumor formation and the eggs were tapped and returned to the incubator. At day 14 of development, the tumors were photographed. The treated groups received 20 μL of 2×IC50 concentration of MC408 or MC421 in complete DMEM (for Hs578t cells) or complete RPMI (for 786-O cells) media and the controls received 20 μL of 0.5% DMSO in complete DMEM or RPMI; these were added over the formed tumor. After 72 hours of treatment (day 17 of development), the tumors were photographed again in ovo. Sacrifice of chicken embryos was performed at −80° C. for 10 minutes and the CAM alone was fixed with paraformaldehyde at 4% before being photographed again ex ovo.

786-O cells [2] = experiment: Annexin V/PI flow cytometry, 786-O; type: cell-based; settings: IC50 concentration; 24 h
From the text: (§1) In an embodiment, to understand the mechanisms leading to cell death, cells were studied for the induction of apoptosis by flow cytometry. […] Externalization of phosphatidylserine occurs during the early apoptotic events. While annexin V binds to phosphatidylserine, PI stains only cells that have lost their membrane integrity, an experimental procedure which allows the discrimination between viable cells, early apoptotic cells, late apoptotic/necrotic cells or necrotic cells.
(§2) In an embodiment, MCF-7, Hs578t and 786-O cells were seeded in 6-well culture plates and allowed to adhere over 18-20 hours in a complete DMEM (for MCF-7 and Hs578t cells) and complete RPMI (for 786-O cells) medium to detect apoptosis via flow cytometry analysis. […] Triplicates were performed in each experiment. Floating and adherent cells were collected and combined by centrifugation. Elimination of the supernatant was followed by addition of 1 mL of Binding Buffer. 8 μL FITC annexin V (556419, BD Pharmingen) and 30 μl of PI (50 μg/mL, P1304MP, Invitrogen) were added to the cell pellet. Samples were incubated in the dark for 15 min at room temperature. A further 200 μL of Binding Buffer was added to each sample. PI signal was measured using FACS LSRII flow cytometer (BD Biosciences®) with 488 nm excitation laser. […] The percentage of cells in each phase was analysed using the FlowJo 7.6 (Tree Star®) software. […]

[3] = tested on: TNBC cell line MDA-MB-231; experiment: Orthotopic breast cancer xenograft in NSG mice; type: in vivo
Procedure: In an embodiment, the in vivo therapeutic efficacy of compound MC408 was analysed using the mouse model. […] MDA-MB-231 cells were injected into the mammary fat pad of NSG mice (n=6 or 7 per group). Treatment was administered 3 days post-implantation for one week. NT=Vehicle; Dose 1=3 mg/kg; Dose 2=10 mg/kg; Dose 3=50 mg/kg. *, p<0.05; **, p<0.01; ****, p<0.0001 (compared to NT group; two-way ANOVA post-hoc Tukey's test or unpaired t-test with Welch's correction).
In an embodiment, NSG (NOD Scid Gamma) female mice (3-6 months) were injected with a mixture of 0.6×10^6 MDA-MB-231 breast cancer cells and matrigel (ratio 1:1) in the mammary fat pad. Mice were randomly assigned to treatment groups (at least 6 mice/group), which was started 3 days post-implantation using 3 independent doses of compound MC408 (dose 1=3 mg/kg, dose 2=10 mg/kg, and dose 3=50 mg/kg) or vehicle (PBS 1× and Matrigel, ratio 1:1), and was administered daily for 7 days. Mice were maintained under standard laboratory conditions. Animal tumor size (calculated by measuring the two largest sides and applying the formula: v=3.14×L1×L1×L2/6; being L1 the largest side, and L2 the other one) was measured and recorded regularly. At day 47 post-implantation, animals were sacrificed and tumors were excised. All animal procedures were conducted in accordance with the guidelines for the care and use of laboratory animals (European Directive 2010/63/EU).

MCF-7 cells = experiment: Annexin V/PI flow cytometry, MCF-7; type: cell-based, human; settings: IC50 concentration; 24 h
From the text: as §1, §2

786-O cells [4] = experiment: BrdU proliferation assay, 786-O; type: cell-based; settings: 48 hours; IC50 and ½IC50
Procedure: In an embodiment, the effect of preferred chromene-based compounds on cell proliferation was evaluated. […] Results are presented as mean±SD at least three independent experiments. *p<0.05, **p<0.01, ***p<0.0005, ****p<0.0001 compared to control (0.5% DMSO). The significance of the difference between different groups was determined with Student t test. […] Exceptions are observed for compounds MC409, MC410 and MC368.
In an embodiment, proliferation assay was performed. 786-O cells were plated in 96-well plates at a density of 7000 cells/[…], and allowed to incubate overnight at 37° C. in a 5% CO2 humidified atmosphere. […] After incubation, cells were labelled by addition of 10 μl/well BrdU labelling solution (final concentration: 40 μM BrdU). The cells were then re-incubated for 16 h to allow BrdU to incorporate into the proliferating cell DNA, replacing thymidine. […] The immune complexes were detected by the addition of substrate solution (100 μl/well) and the plate was incubated at room temperature until color development was satisfactory for photometric detection (5-10 min). […] The reaction product was quantified by measuring absorbance at 450 nm (reference wavelength: 690 nm) in microplate reader (Tecan Infinite M200). […] The results of at least three independent experiments (in quadruplicate) were evaluated using GraphPad Prism 5 software.

[5] = 3, 10, 50 mg/kg daily for 7 days, dose-dependent

SMILES | formation of novel blood vessels [1] | pre-existing blood vessels [1] | induction of cell death by apoptosis (annexin V/PI) (786-O cells [2]) | tumor volume [3, 5] | tumor weight [3, 5] | reduction of tumor volume comparing to the vehicle group ([3]; dose of 50 mg/kg) | reduction of tumor weight comparing to the vehicle group ([3]; dose of 50 mg/kg) | weight loss and other side effects ([3]; tested treatment regimen, whole experiment) | induction of cell death by apoptosis (annexin V/PI) (MCF-7 cells) | effect on cell proliferation (BrdU incorporation) (786-O cells [4])
COc1cccc2c1Oc1nc(-c3ccc(Br)cc3)[nH]c1C2 [MC408, 2-(4-bromophenyl)-5-methoxy-3,9-dihydrochromeno[2,3-d]imidazoles] | decreased | disruption | inducing cell death by apoptosis (early apoptosis) | significantly decreased | significantly decreased | more than 40% | more than 40% | no weight loss nor other side effects | inducing cell death by apoptosis (early apoptosis) | –
COc1cccc2c1Oc1nc(-c3ccc(F)cc3)[nH]c1C2 [MC409, 2-(4-fluorophenyl)-5-methoxy-3,9-dihydrochromeno[2,3-d]imidazoles] | – | – | – | – | – | – | – | – | – | Exceptions
COc1cccc2c1Oc1nc(-c3cc(F)cc(F)c3O)[nH]c1C2 [MC410, 2,4-difluoro-6-(5-methoxy-3,9-dihydrochromeno[2,3-d]imidazol-2-yl)phenol] | – | – | – | – | – | – | – | – | – | Exceptions
COc1cccc2c1Oc1nc(-c3ccc(Br)cc3)[nH]c1C2C1c2cccc(OC)c2Oc2nc(-c3ccc(Br)cc3)[nH]c21 (stereo not drawn) [MC421, 2,2′-bis(4-bromophenyl)-5,5′-dimethoxy-1,1,9,9′-tetrahydro-9,9′-bichromeno[2,3-]imidazoles] | decreased | disruption | inducing cell death by apoptosis (early apoptosis) | – | – | – | – | – | inducing cell death by apoptosis (early apoptosis) | –
